In one assay the test system is ACE-II. The arrangement: method as in PMID 24131339. To be noted: negative control in studies on marine cryptides; ref [49]; read-out: IC50 for ACE-II inhibition; cited from earlier work.
The target of the next assay is T1, ACE-1 (Homo sapiens, UniProt P12821).
T1 construct: purchased Cambridge BioSciences (Cambridge, UK)
It counts as biochemical.

T1 sequence (P12821 30-1306): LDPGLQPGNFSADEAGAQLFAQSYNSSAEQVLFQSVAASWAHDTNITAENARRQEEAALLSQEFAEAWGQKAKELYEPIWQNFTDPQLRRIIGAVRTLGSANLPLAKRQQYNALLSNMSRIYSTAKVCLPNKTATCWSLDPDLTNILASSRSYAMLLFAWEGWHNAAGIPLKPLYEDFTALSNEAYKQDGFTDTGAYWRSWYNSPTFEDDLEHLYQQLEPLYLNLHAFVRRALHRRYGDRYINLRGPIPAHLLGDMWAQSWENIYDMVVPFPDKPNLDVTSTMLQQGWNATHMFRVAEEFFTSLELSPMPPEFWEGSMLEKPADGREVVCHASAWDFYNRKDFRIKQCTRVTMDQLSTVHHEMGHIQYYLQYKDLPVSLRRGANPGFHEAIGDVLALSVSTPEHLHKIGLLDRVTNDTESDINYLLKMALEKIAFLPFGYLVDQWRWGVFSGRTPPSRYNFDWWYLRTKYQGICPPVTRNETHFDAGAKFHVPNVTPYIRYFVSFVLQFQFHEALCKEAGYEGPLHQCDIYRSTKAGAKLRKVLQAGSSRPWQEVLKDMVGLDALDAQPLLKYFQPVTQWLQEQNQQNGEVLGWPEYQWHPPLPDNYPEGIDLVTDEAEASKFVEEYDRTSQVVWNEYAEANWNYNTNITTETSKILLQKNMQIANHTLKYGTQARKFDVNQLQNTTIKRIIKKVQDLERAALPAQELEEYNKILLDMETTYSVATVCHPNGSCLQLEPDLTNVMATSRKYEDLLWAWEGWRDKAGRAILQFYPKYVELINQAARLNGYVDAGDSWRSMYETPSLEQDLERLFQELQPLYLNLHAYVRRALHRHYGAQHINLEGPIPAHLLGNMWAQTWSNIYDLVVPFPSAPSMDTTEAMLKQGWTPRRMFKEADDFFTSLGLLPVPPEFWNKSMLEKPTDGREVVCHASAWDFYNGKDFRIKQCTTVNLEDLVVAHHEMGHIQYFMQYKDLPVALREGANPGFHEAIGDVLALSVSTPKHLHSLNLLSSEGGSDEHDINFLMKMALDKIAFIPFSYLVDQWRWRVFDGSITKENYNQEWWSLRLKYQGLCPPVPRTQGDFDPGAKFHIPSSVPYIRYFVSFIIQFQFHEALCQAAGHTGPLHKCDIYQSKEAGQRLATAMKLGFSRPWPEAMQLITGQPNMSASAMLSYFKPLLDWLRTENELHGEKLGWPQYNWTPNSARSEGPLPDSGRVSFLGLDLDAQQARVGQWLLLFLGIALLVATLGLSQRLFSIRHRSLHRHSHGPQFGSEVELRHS

As to `CCCCc1nc(Cl)c(CO)n1Cc1ccc(-c2ccccc2-c2nn[nH]n2)cc1` [Losartan], in the assay with ACE-II, the IC50 is 17.1 to 146 µM.
Molecule YIHNNPAKGGLF had an ACE-1 inhibition on ACE-1 of 91%.

These data come from paper PMC9967564, “Identification of Bioactive Peptides from a Laminaria digitata Protein Hydrolysate Using In Silico and In Vitro Methods to Identify Angiotensin-1-Converting Enzyme (ACE-1) Inhibitory Peptides” (Marine Drugs, 2023).
